Several values for one entry are separate records, joined by “and”; a condition that tells them apart may be missing. Identical values can stand only once. HELM strings list units from the 5' end as sugar, base in round brackets, then linkage (d deoxyribose, r ribose, m 2'-O-methyl, p phosphodiester). Strings are as the collection lists them, not checked against the first reports. ss, as = sense and antisense strand; [lna] = locked nucleic acid (LNA); [una] = unlocked nucleic acid; [s4r] = 4'-thioribose; [fl2r] = 2'-fluoro
Note: test system not given here.

The conditions of the data set: siRNA.
“RNA1{m(C)p.r(U)p.m(C)p.r(C)p.m(U)p.r(U)p.m(C)p.r(A)p.m(U)p.r(U)p.m(C)p.r(C)p.m(A)p.r(G)p.m(C)p.r(C)p.m(U)p.r(A)p.m(U)p.r(T)p.r(T)}|RNA2{r(A)p.r(U)p.r(A)p.r(G)p.r(G)p.r(C)p.r(U)p.r(G)p.r(G)p.r(A)p.r(A)p.r(U)p.r(G)p.r(A)p.r(A)p.r(G)p.r(G)p.r(A)p.r(G)p.r(T)p.r(T)}$$$RNA1{StrandType:ss}|RNA2{StrandType:as}$” showed a target mRNA knockdown of 51%. For “RNA1{r(G)p.r(A)p.r(G)p.r(A)p.r(G)p.r(A)p.r(G)p.r(A)p.r(C)p.r(G)p.r(G)p.m(U)p.m(G)p.r(G)p.r(A)p.r(A)p.r(G)p.r(A)p.r(A)p.r(T)p.r(T)}|RNA2{r(U)p.r(U)p.r(C)p.r(U)p.r(U)p.r(C)p.m(C)p.r(A)p.r(C)p.r(C)p.r(G)p.r(U)p.r(C)p.r(U)p.r(C)p.r(U)p.r(C)p.r(U)p.r(C)p.r(T)p.r(T)}$$$RNA1{StrandType:ss}|RNA2{StrandType:as}$”, the target mRNA knockdown stood at 72%. On to “RNA1{[fl2r](U)p.r(U)p.[fl2r](A)p.r(C)p.[fl2r](C)p.r(C)p.[fl2r](C)p.r(G)p.[fl2r](A)p.r(U)p.[fl2r](U)p.r(C)p.[fl2r](A)p.r(G)p.[fl2r](C)p.r(C)p.[fl2r](U)p.r(C)p.[fl2r](U)p.r(T)p.r(T)}|RNA2{r(A)p.r(G)p.r(A)p.r(G)p.r(G)p.r(C)p.r(U)p.r(G)p.r(A)p.r(A)p.r(U)p.r(C)p.r(G)p.r(G)p.r(G)p.r(G)p.r(U)p.r(A)p.r(A)p.r(T)p.r(T)}$$$RNA1{StrandType:ss}|RNA2{StrandType:as}$”, for which the target mRNA knockdown was 67%.

The substance “RNA1{r(C)p.[fl2r](C)p.r(A)p.r(G)p.r(C)p.r(G)p.r(A)p.r(G)p.r(C)p.r(C)p.[fl2r](C)p.r(A)p.r(A)p.r(A)p.r(A)p.[fl2r](G)p.r(A)p.r(A)p.r(A)p.r(T)p.r(T)}|RNA2{r(U)p.r(U)p.r(U)p.r(C)p.r(U)p.r(U)p.r(U)p.[fl2r](U)p.r(G)p.r(G)p.r(G)p.r(C)p.r(U)p.r(C)p.r(G)p.r(C)p.[fl2r](U)p.r(G)p.r(G)p.r(T)p.r(T)}$$$RNA1{StrandType:ss}|RNA2{StrandType:as}$” gave a target mRNA knockdown of 82%. “RNA1{[fl2r](A)p.r(U)p.[fl2r](C)p.r(G)p.[fl2r](C)p.r(U)p.[fl2r](G)p.r(C)p.[fl2r](U)p.r(C)p.[fl2r](C)p.r(U)p.[fl2r](C)p.r(C)p.[fl2r](U)p.r(C)p.[fl2r](C)p.r(U)p.[fl2r](C)p.r(T)p.r(T)}|RNA2{r(G)p.r(A)p.r(G)p.r(G)p.r(A)p.r(G)p.r(G)p.r(A)p.r(G)p.r(G)p.r(A)p.r(G)p.r(C)p.r(A)p.r(G)p.r(C)p.r(G)p.r(A)p.[fl2r](U)p.r(T)p.r(T)}$$$RNA1{StrandType:ss}|RNA2{StrandType:as}$” gave a target mRNA knockdown of 39%. Substance “RNA1{r(G)p.r(G)p.m(U)p.r(A)p.r(G)p.r(G)p.r(G)p.r(U)p.m(U)p.r(G)p.r(A)p.r(A)p.r(G)p.r(A)p.r(G)p.r(A)p.r(C)p.r(U)p.r(U)p.r(T)p.r(T)}|RNA2{r(A)p.r(A)p.r(G)p.r(U)p.r(C)p.r(U)p.r(C)p.r(U)p.r(U)p.m(C)p.r(A)p.r(A)p.r(C)p.r(C)p.r(C)p.m(U)p.r(A)p.r(C)p.r(C)p.r(T)p.r(T)}$$$RNA1{StrandType:ss}|RNA2{StrandType:as}$” registered a target mRNA knockdown of 94%. “RNA1{r(G)p.r(U)p.r(G)p.r(A)p.r(A)p.r(G)p.r(U)p.r(C)p.r(A)p.r(A)p.r(C)p.r(A)p.r(U)p.r(G)p.r(C)p.r(C)p.r(U)p.r(G)p.r(C)p.d(T)p.d(T)}|RNA2{r(G)p.r(C)p.r(A)p.r(G)p.r(G)p.r(C)p.r(A)p.r(U)p.r(G)p.r(U)p.r(U)p.r(G)p.r(A)p.r(C)p.r(U)p.r(U)p.r(C)p.r(A)p.r(C)p.d(T)p.d(T)}$$$RNA1{StrandType:ss}|RNA2{StrandType:as}$”: the target mRNA knockdown was 50% and 70%. With “RNA1{r(C)p.r(U)p.r(U)p.r(A)p.r(C)p.r(G)p.r(C)p.r(U)p.r(G)p.r(A)p.r(G)p.r(U)p.r(A)p.r(C)p.r(U)p.r(U)p.r(C)p.r(G)p.r(A)p.r(T)p.r(T)}|RNA2{r(T)p.r(C)p.r(G)p.r(A)p.r(A)p.r(G)p.[lna](T)p.r(A)p.r(C)p.r(U)p.r(C)p.r(A)p.r(G)p.r(C)p.r(G)p.r(U)p.r(A)p.r(A)p.r(G)p.[lna](T)p.[lna](T)}$$$RNA1{StrandType:ss}|RNA2{StrandType:as}$” the figure was 93%; with “RNA1{r(C)p.r(G)p.r(U)p.r(A)p.r(C)p.r(G)p.r(C)p.r(G)p.r(G)p.r(A)p.r(A)p.r(U)p.r(A)p.r(C)p.r(U)p.r(U)p.r(C)p.[s4r](G)p.[s4r](A)p.r(T)p.r(T)}|RNA2{r(U)p.r(C)p.r(G)p.r(A)p.r(A)p.r(G)p.r(U)p.r(A)p.r(U)p.r(U)p.r(C)p.r(C)p.r(G)p.r(C)p.r(G)p.r(U)p.r(A)p.r(C)p.r(G)p.r(T)p.r(T)}$$$RNA1{StrandType:ss}|RNA2{StrandType:as}$”, 95.4%; with “RNA1{m(C)p.r(C)p.m(G)p.r(A)p.m(G)p.r(A)p.m(G)p.r(C)p.m(U)p.r(C)p.m(U)p.r(C)p.m(C)p.r(U)p.m(A)p.r(C)p.m(C)p.r(U)p.m(U)p.r(T)p.r(T)}|RNA2{r(A)p.r(A)p.r(G)p.r(G)p.r(U)p.r(A)p.r(G)p.r(G)p.r(A)p.r(G)p.r(A)p.r(G)p.r(C)p.r(U)p.r(C)p.r(U)p.r(C)p.r(G)p.r(G)p.r(T)p.r(T)}$$$RNA1{StrandType:ss}|RNA2{StrandType:as}$”, 34%. In turn, “RNA1{r(C)p.r(U)p.r(U)p.r(A)p.r(C)p.r(G)p.r(C)p.r(U)p.r(G)p.r(A)p.r(G)p.r(U)p.r(A)p.r(C)p.r(U)p.r(U)p.r(C)p.r(G)p.r(A)p.[lna](T)p.[lna](T)}|RNA2{r(U)p.r(C)p.r(G)p.r(A)p.r(A)p.r(G)p.r(U)p.r(A)p.r(C)p.r(U)p.r(C)p.r(A)p.r(G)p.r(C)p.r(G)p.r(U)p.r(A)p.r(A)p.r(G)p.r(T)p.r(T)}$$$RNA1{StrandType:ss}|RNA2{StrandType:as}$” showed a target mRNA knockdown of 97%. As to “RNA1{r(U)p.r(C)p.r(C)p.r(U)p.r(A)p.r(C)p.r(A)p.r(G)p.r(C)p.r(A)p.r(C)p.r(A)p.r(A)p.r(C)p.r(A)p.r(A)p.r(A)p.r(U)p.r(G)p.d(U)p.d(G)}|RNA2{r(C)p.r(A)p.r(U)p.r(U)p.r(U)p.r(G)p.r(U)p.r(U)p.r(G)p.r(U)p.r(G)p.r(C)p.r(U)p.r(G)p.r(U)p.r(A)p.r(G)p.r(G)p.r(A)p.d(A)p.d(G)}$$$RNA1{StrandType:ss}|RNA2{StrandType:as}$”, the target mRNA knockdown was 25% and 0%.

“RNA1{[lna](G)p.r(C)p.r(A)p.r(G)p.r(C)p.r(A)p.r(C)p.r(G)p.r(A)p.r(C)p.r(U)p.r(U)p.r(C)p.r(U)p.r(U)p.r(C)p.r(A)p.r(A)p.r(G)p.r(U)p.r(U)}|RNA2{r(C)p.r(U)p.r(U)p.r(G)p.r(A)p.r(A)p.r(G)p.r(A)p.r(A)p.r(G)p.r(U)p.r(C)p.r(G)p.r(U)p.r(G)p.r(C)p.r(U)p.r(G)p.r(C)p.r(U)p.r(U)}$$$RNA1{StrandType:ss}|RNA2{StrandType:as}$”: the target mRNA knockdown was 73.2%.

Regarding “RNA1{[fl2r](U)p.r(C)p.[fl2r](C)p.r(G)p.[fl2r](G)p.r(C)p.[fl2r](U)p.r(A)p.[fl2r](A)p.r(C)p.[fl2r](U)p.r(C)p.[fl2r](U)p.r(G)p.[fl2r](A)p.r(G)p.[fl2r](G)p.r(A)p.[fl2r](C)p.r(T)p.r(T)}|RNA2{r(G)p.r(U)p.r(C)p.r(C)p.r(U)p.r(C)p.r(A)p.r(G)p.r(A)p.r(G)p.r(U)p.r(U)p.r(A)p.r(G)p.r(C)p.r(C)p.r(G)p.r(G)p.r(A)p.r(T)p.r(T)}$$$RNA1{StrandType:ss}|RNA2{StrandType:as}$”, the target mRNA knockdown was 41%.

Substance “RNA1{r(G)p.r(G)p.r(A)p.r(C)p.r(A)p.r(U)p.r(U)p.r(C)p.r(A)p.r(G)p.r(A)p.r(A)p.r(C)p.r(A)p.r(A)p.r(G)p.r(A)p.r(A)p.r(A)p.[una](U)p.[una](U)}|RNA2{r(U)p.r(U)p.r(U)p.[una](C)p.r(U)p.r(U)p.r(G)p.r(U)p.r(U)p.r(C)p.r(U)p.r(G)p.r(A)p.r(A)p.r(U)p.r(G)p.r(U)p.r(C)p.r(C)p.[una](U)p.[una](U)}$$$RNA1{StrandType:ss}|RNA2{StrandType:as}$” had a target mRNA knockdown of 50%.

In turn, “RNA1{[fl2r](C)p.r(A)p.r(G)p.r(A)p.r(G)p.[fl2r](C)p.r(A)p.r(A)p.[fl2r](U)p.[fl2r](U)p.r(G)p.[fl2r](U)p.[fl2r](U)p.[fl2r](U)p.r(A)p.[fl2r](C)p.[fl2r](C)p.[fl2r](U)p.r(A)p.r(T)p.r(T)}|RNA2{[fl2r](U)p.r(A)p.r(G)p.r(G)p.[fl2r](U)p.r(A)p.r(A)p.r(A)p.[fl2r](C)p.r(A)p.r(A)p.[fl2r](U)p.[fl2r](U)p.r(G)p.[fl2r](C)p.[fl2r](U)p.[fl2r](C)p.r(U)p.r(G)p.r(T)p.r(T)}$$$RNA1{StrandType:ss}|RNA2{StrandType:as}$” returned a target mRNA knockdown of 72%. Turning to “RNA1{[fl2r](G)p.r(C)p.[fl2r](U)p.r(U)p.[fl2r](C)p.r(G)p.[fl2r](G)p.r(A)p.[fl2r](A)p.r(A)p.[fl2r](C)p.r(U)p.[fl2r](G)p.r(G)p.[fl2r](A)p.r(C)p.[fl2r](A)p.r(U)p.[fl2r](C)p.r(T)p.r(T)}|RNA2{[fl2r](G)p.r(A)p.r(U)p.[fl2r](G)p.r(U)p.r(C)p.r(C)p.r(A)p.[fl2r](G)p.r(U)p.r(U)p.r(U)p.r(C)p.r(C)p.[fl2r](G)p.r(A)p.r(A)p.[fl2r](G)p.r(C)p.r(T)p.r(T)}$$$RNA1{StrandType:ss}|RNA2{StrandType:as}$”, the target mRNA knockdown came out at 29%. “RNA1{m(G)p.r(U)p.m(C)p.r(U)p.m(A)p.r(U)p.m(G)p.r(C)p.m(C)p.r(A)p.m(A)p.r(G)p.m(A)p.r(A)p.m(G)p.r(G)p.m(G)p.r(A)p.m(G)p.r(T)p.r(T)}|RNA2{r(C)p.r(U)p.r(C)p.r(C)p.r(C)p.r(U)p.r(U)p.r(C)p.r(U)p.r(U)p.r(G)p.r(G)p.r(C)p.r(A)p.r(U)p.r(A)p.r(G)p.r(A)p.r(C)p.r(T)p.r(T)}$$$RNA1{StrandType:ss}|RNA2{StrandType:as}$” gave a target mRNA knockdown of 24%.

As to “RNA1{r(C)p.r(U)p.r(C)p.r(C)p.r(U)p.r(U)p.r(C)p.r(A)p.r(U)p.r(U)p.r(C)p.r(C)p.r(A)p.r(G)p.r(C)p.r(C)p.m(U)p.r(A)p.r(U)p.r(T)p.r(T)}|RNA2{r(A)p.m(U)p.r(A)p.r(G)p.r(G)p.r(C)p.r(U)p.r(G)p.r(G)p.r(A)p.r(A)p.r(U)p.r(G)p.r(A)p.r(A)p.r(G)p.r(G)p.r(A)p.r(G)p.r(T)p.r(T)}$$$RNA1{StrandType:ss}|RNA2{StrandType:as}$”, the target mRNA knockdown worked out at 81%.

Values taken from the OligoGym collection.
